Experimental data as given in patent US20150191445A1, “ACYL-HYDRAZONE AND OXADIAZOLE COMPOUNDS, PHARMACEUTICAL COMPOSITIONS CONTAINING THE SAME AND USES THEREOF” (Universidade Federal de Santa Catarina, priority 2011, published 2015).
“Also recorded” adds a separate entry of the source.

Key:
REH cells = assay: MTT cytotoxicity assay, REH cell line; assay type: cell-based, human; conditions: 48 h of treatment
Description: (§1) All compounds were resuspended in DMSO at stock concentration of 20 mM and stored at −20° C. For cytotoxicity testing, the dilutions from the stock solutions were made in culture medium (RPMI-1640 plus 10% of fetal bovine serum, 100 IU/ml penicillin and 100 µg/mL Streptomycin), immediately before being discharged to the cells.
(§2) The REH and Jurkat cell lines were maintained in
(§3) RPMI-1640 medium with 10% FBS (fetal bovine serum), 100 IU/mL penicillin, 100 µg/mL streptomycin and incubated at 37° C. and 5% CO2. Cytotoxicity assays were performed according to the method described in the literature (Pieters, R.; et al. In vitro drug sensitivity of cells from children with leukemia using the MTT assay with improved culture conditions. Blood, 1990, 76, 2327-2336; Pieters, R.; et al. Relation of cellular drug resistance to long-term clinical outcome in childhood acute lymphoblastic leukaemia. Lancet, 1991, 338, 399-403 e Kaspers, G. J.; et al. In vitro cellular drug resistance and prognosis in newly diagnosed childhood acute lymphoblastic leukemia. Blood, 1997, 90, 2723). Cells were resuspended at a concentration of 3.75 10^5 cells/mL in culture medium as described. Eighty microliters of this suspension were seeded into plates with 96 round-bottom wells, containing 20 microliters of different concentrations of compound or vehicle alone. Each treatment was done in triplicate. After 48 hours of incubation at 37° C. and 5% CO2, 20 μL of MTT solution was added (5 mg/mL of 1x PBS), followed by further incubation for 4 hours and 30 minutes at 37° C. and 5% CO2. During these 4 hours and 30 minutes, MTT (yellowish) is metabolized to formazan salt (bluish in color) by living cells. After this, 100 μL sodium dodecyl sulphate (SDS) 10%+0.1M of HCl were added to dissolve the formazan crystals. After incubating overnight, absorbance reading at 570 nm was carried out. The percentage of cells surviving the treatment were calculated relative to the number of surviving cells in the medium without addition of the compounds in question (“negative control”).
(§4) c) Determination of IC: IC50 is defined as the concentration of a compound at which 50% of maximal inhibition is obtained. After reading the absorbance, survival curves were constructed and the values of IC50 were obtained with the GraphPad Prism software.

Jurkat cells = assay: MTT cytotoxicity assay, Jurkat cell line; assay type: cell-based, human; conditions: 48 h of treatment, read-out: IC50 T (Jurkat)
Description: as §1, §2, §3, §4

[1] = test system: human leukemic Jurkat cells and HEK; assay: Screening of compounds by cell viability assay (MTT) in leukemic cells; assay type: cell-based; conditions: leukemic cells of Jurkat and HEK strains
Description: RPMI-1640 medium with 10% FBS (fetal bovine serum), 100 IU/mL penicillin, 100 µg/mL streptomycin and incubated at 37° C. and 5% CO2. Cytotoxicity assays were performed according to the method described in the literature (Pieters, R.; et al. In vitro drug sensitivity of cells from children with leukemia using the MTT assay with improved culture conditions. Blood, 1990, 76, 2327-2336; Pieters, R.; et al. Relation of cellular drug resistance to long-term clinical outcome in childhood acute lymphoblastic leukaemia. Lancet, 1991, 338, 399-403 e Kaspers, G. J.; et al. In vitro cellular drug resistance and prognosis in newly diagnosed childhood acute lymphoblastic leukemia. Blood, 1997, 90, 2723). Cells were resuspended at a concentration of 3.75 10^5 cells/mL in culture medium as described. Eighty microliters of this suspension were seeded into plates with 96 round-bottom wells, containing 20 microliters of different concentrations of compound or vehicle alone. Each treatment was done in triplicate. […] After incubating overnight, absorbance reading at 570 nm was carried out. The percentage of cells surviving the treatment were calculated relative to the number of surviving cells in the medium without addition of the compounds in question (“negative control”). […]

[2] = biological target: Trypanosoma cruzi cruzain (Trypanosoma cruzi, UniProt P25779); conditions: cited from earlier work
Trypanosoma cruzi cruzain, sequence (P25779 123-467): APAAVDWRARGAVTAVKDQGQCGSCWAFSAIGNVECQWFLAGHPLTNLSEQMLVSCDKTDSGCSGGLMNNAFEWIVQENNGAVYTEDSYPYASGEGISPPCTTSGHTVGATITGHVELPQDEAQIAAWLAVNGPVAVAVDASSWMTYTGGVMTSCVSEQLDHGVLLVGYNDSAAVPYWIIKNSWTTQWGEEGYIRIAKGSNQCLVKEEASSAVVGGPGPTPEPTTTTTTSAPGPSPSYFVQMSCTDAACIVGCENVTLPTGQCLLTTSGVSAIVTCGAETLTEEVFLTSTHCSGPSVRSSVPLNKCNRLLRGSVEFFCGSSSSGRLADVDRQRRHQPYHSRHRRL

[3] = test system: healthy and phytohemagglutinin-stimulated lymphocytes; assay: MTT assay on normal lymphocytes stimulated with phytohemagglutinin; assay type: cell-based, human; conditions: for Percentage of survival: 48 h, MTT
Description: for the test of compound 07 against normal lymphocytes, blood from human donors was separated in a ficoll gradient and the mononuclear cells were cultivated at 200,000 cells/well, in 80 microliters of RPMI-1640 (containing 10% FBS, 100 IU/mL penicillin and 100 μg/mL streptomycin) and 20 microliters of phytohemagglutinin solution (Cultilab) in each well for stimulation of T lymphocytes. Compound 07 was added in serial dilutions (50%) from 300 to 1 nm. As a control, parallel tests were run with cells from leukemic Jurkat and REH cell lines, and experiments with colchicine with the same concentrations as compound 07. Cytotoxicity was assessed after 48 hours by the MTT method, as described Above.

melting point | Compound | IC50 (REH cells) | IC50 (Jurkat cells) | also measured
– | COc1cc(C(=O)NN=Cc2ccc(Cl)cc2)cc(OC)c1OC [Compound 09] | 328 nM | 203 nM | –
230 to 231 °C | COc1cc(C(=O)N/N=C/c2cnc[nH]2)cc(OC)c1OC [Compound 17] | – | – | –
203 to 204 °C | COc1cc(C(=O)N/N=C/c2ccc(Cl)c(C(F)(F)F)c2)cc(OC)c1OC [Compound 29] | – | – | –
206 to 208 °C | COc1cc(C(=O)N/N=C/c2ccc(Br)cc2O)cc(OC)c1OC [Compound 26] | – | – | –
245 to 246 °C | COc1cccc(OC)c1/C=N/NC(=O)c1cc(OC)c(OC)c(OC)c1 [Compound 21] | – | – | –
247 to 248 °C | COc1cc(/C=N/NC(=O)c2cc(OC)c(OC)c(OC)c2)cc(I)c1O [Compound 05] | – | – | –
– | COc1cc(C(=O)NN=Cc2ccccc2Cl)cc(OC)c1OC [Compound 11] | 459 nM | 189 nM | –
170 to 172 °C | COc1cc(C2OC(c3cc(OC)c(OC)c(OC)c3)=NN2C(C)=O)ccc1O (stereo not drawn) [Compound 37] | – | – | –
– | COc1cc(C(=O)NN=Cc2ccc(C)cc2)cc(OC)c1OC [Compound 16] | 70.6 nM | 71.5 nM | –
– | COc1cc(C(=O)NN=Cc2ccc3c(c2)OCO3)cc(OC)c1OC [Compound 10] | 206 nM | 154 nM | –
177 to 179 °C | COc1cc(C2OC(c3cc(OC)c(OC)c(OC)c3)=NN2C(C)=O)cc(Br)c1O (stereo not drawn) [Compound 36] | – | – | –
– | COc1cc(C(=O)NN=Cc2ccc(Br)cc2)cc(OC)c1OC [Compound 02] | 33.7 nM | 31.4 nM | antileukemic activity [1]: excellent antileukemic activity; also recorded: significant antileukemic activity; inhibitory activity of cruzain [2]: did not show inhibitory activity
– | Colchicine [reference compound] | 9.5 nM | 7.7 nM | Percentage of survival ([3]; 4.6 nM): 109%; Percentage of survival ([3]; 9.38 nM): 110%; Percentage of survival ([3]; 18.75 nM): 95%; Percentage of survival ([3]; 37.5 nM): 84%; Percentage of survival ([3]; 75 nM): 75%; Percentage of survival ([3]; 150 nM): 69%; toxicity relative to the control / inhibition on the viability of lymphocytes T ([3]; 300 nM): 37%; Percentage of survival ([3]; 300 nM): 63%
189 to 192 °C | COc1cc(C2=NN(C(C)=O)C(c3cccc4ccccc34)O2)cc(OC)c1OC (stereo not drawn) [Compound 38] | – | – | –
